Data set [1] relates to ALDH (acetaldehyde dehydrogenase) gene. As to the kind of experiment: qPCR of ALDH mRNA in HepG2 cells. In kind it is cell-based, human. As to conditions: HepG2, 10 μM, 1 and 2 h. On the procedure:
To evaluate the role of the GFM in ethanol metabolism, the genes of primary enzymes (ADH, ALDH, CYP2E1, and catalase) involved in eliminating ethanol from the body were quantified by real-time qPCR. Particularly, total RNA extracts from HepG2 cells (1×10^6 cells/well) treated with ethanol (0.2 mM) or GFM (10 μg/ml) were prepared using the Trizol method (Invitrogen) after 1, 2, 4 and 24 h after the treatment. And then, cDNA was synthesized from RNA by reverse transcription of 1 μg of total RNA using the Improm-II reverse transcription system (Promega) and oligo dT primers in a total volume of 20 μL. PCR amplification was performed using the primers described in Table 1 (Bioneer, Deajeon, Republic of Korea). Quantitative real-time PCR reactions were run on a Rotor-Gene 6000 (Corbett Research, Sydney, Australia) using SYBR Green PCR Master Mix (Qiagen, Valencia, Calif., USA) in 20 μL reaction mixtures. Each real-time-PCR master mix contained 10 μL 2× enzyme mastermix, 7.0 μL RNase free water, 1 μL of each primer (10 μM each) and 1 μL diluted template. […] Relative sample expression levels were calculated using Rotor-Gene 6000 Series Software 1.7 and were expressed relative to glyceraldehyde 3-phosphate dehydrogenase and corrected for between-run variability. Data for the experimental samples were expressed as a percentage of the internal control gene. […]
A general note: Quantitative PCR measures a nucleic acid by following its amplification.

For data set [2], the system named is HepG2 cells. As to the kind of experiment: Cytotoxicity assay by LDH release. In kind it is cell-based, human. As to conditions: HepG2, ethanol 200 mM. On the procedure:
HepG2 human hepatoma cells (Korean Cell Line Bank, Seoul, Republic of Korea) were grown in RPMI1640 complete medium (Hyclone, Logan, Utah, USA) supplemented with 10% fetal bovine serum, 100 U/mL penicillin, and 100 μg/mL streptomycin (Invitrogen, Carlsbad, Calif., USA). The cultures were maintained under 5% CO2 at 37° C. in tissue culture flasks. For all experiments, cells were grown to >90% confluency and subjected to no more than 20 cell passages. The medium was changed every 2-3 days. Subconfluent cells were harvested and seeded at a density of 5×10^5 cells or 1.5×10^6 cells in poly-L-lysine-coated 35 mm or 60 mm culture plates. […]
Cytotoxicity of the GFM was investigated by measuring lactate dehydrogenase (LDH) release from HepG2 cells. That is, the cytotoxicity induced by the GFM in HepG2 cells was quantified by measuring LDH release at varying ranges of concentration (1-1,000 μg/mL). Cytotoxicity in experimental samples was determined as % LDH release, and the data from triplicate cultures were expressed as the mean±standard deviation. Concentration-dependent cytotoxicity determined as % LDH release was compared with non-treated control cells (Ctrl) and H2O2 (1 mM)-treated control was used as a positive control. […] Formazan was quantified spectrophotometrically by measuring its absorbance at 490 nm (Spectra Max 340, Molecular Devices, Sunnyvale, Calif., USA).
In general terms: LDH in the medium is a marker of cell lysis.

Data set [3] is described as follows: Hepatoprotective effect: serum GOT and GPT after oral ethanol. The conditions noted are these: 20% ethanol only, 300 μl oral, 8 h after ethanol.
Experimental: (§1) GFM suspended in saline solution was orally administrated (25 mg/kg) and CTD dried and then resolved in saline solution (50 mg/kg) was used as positive control (50 mg/kg). Before the administration, the experimental animals fasted 4 hours, and after the administration additional 1 hour of fasting was performed.
Data set [4] in a line: Side effects: body weights, organ masses, symptoms after administration. The conditions noted are these: ethanol only (300 μl of 20% ethanol oral), 8 h.
Experimental: as §1
For data set [5] the following is noted: male, BALB/c, mouse, in vivo, 1 h.
Experimental: Male BALB/c mice (7-week old) were purchased from Samtaco (Osan, Kyunggi-do, Republic of Korea), and were adapted to laboratory conditions (temperature: 20±2° C., relative humidity: 50%, light/dark cycle: 12 h) for 1 week. […] Perfused liver tissues from the treated mice were prepared using the Trizol method (Invitrogen, USA).
The enzymatic analysis was conducted with ALDH according to the method of Lundquist (Lundquist F. et al., Biochem. J., 68:172-177, 1958; Lundquist F. et al., In: Bergmeier H U (ed) Methods of enzymatic analysis. 2nd ed. Weinheim/New York and London, 230-257, 1974). This enzymatic test for alcohol utilizes the coenzyme NAD and ADH. The amount of NADH formed is stoichiometric to the amount of acetaldehyde. NADH was determined by light absorbance at 365 nm.

In the case of `CCCCC/C=C\C/C=C\CCCCCCCC(=O)O` [LA, linoleic acid], the “ALDH mRNA expression induced by fatty acid” value in data set [1] is reported as “effectiveness of GFM might be mainly from LA”.

As to `CCO` [ethanol], in data set [2], the “cytotoxicity (% LDH release)” value is recorded as “not cytotoxic”. Further, in data set [3], the “serum GOT” value came out at 259.00 ± 17.44 IU/L and the “serum GPT” value worked out at 150.50 ± 10.13 IU/L. In data set [4], this compound displayed a Body weight of 21.00 ± 0.57 g, a Liver mass of 1.31 ± 0.11 g and a Spleen mass of 0.09 ± 0.01 g. Also, the “serum ethanol detected by GC” value in data set [5] came out at 12.2%.

Values taken from patent US9901608B2, “Composition and method for enhancing alcohol metabolism” (GANGNEUNG-WONJU NATIONAL UNIVERSITY INDUSTRY ACADEMY …, priority 2014, dated 2018).
